Here are results for two compounds from patent US20260242359A1, “IRHOM2 INHIBITORS AND USES THEREOF” (NEW YORK SOCIETY FOR THE RELIEF OF THE RUPTURED AND …, priority 2023, published 2026).

A value given as a limit tells only on which side of the number the result lay.

Assay [1] concerns PMA-stimulated KL2 release from HEK-293 cells (iRhom2/ADAM17 selective substrate). The assay is described as follows: Secondary screen (Example 3a): PMA-stimulated KL2 release from HEK-293 cells, AP readout. The conditions noted are these: Homo sapiens, HEK293, HEK-293 cells expressing KL2-AP, PMA 500 ng/mL, 2 h, read-out: Secondary Screen XC50 KL2. The format is cell-based. From the text: (§1) Two separate screens to identify novel small molecule inhibitors of iRhom2/ADAM17 activity were developed. […] Therefore, the primary screen for small molecule inhibitors of iRhom2/ADAM17 was a screen for inhibitors that blocked the release of TNFα from LPS-stimulated THP-1 human myeloid cells, a process that depends on iRhom2 and ADAM17. […]
First, expression plasmids for alkaline phosphatase (AP)-fused KL2 and TGFα were designed and generated through gene synthesis followed by subcloning into the pcDNA3.1(+)/Hygro expression vector. […] During cell culturing, cell density and viability were monitored to ensure optimal conditions for the transfections. After PMA stimulation, AP-coupled KL2 or TGFα were detected by measurement of AP activity in the supernatant. […]
After electroporation, cells were further cultured in presence of selection antibiotics, hygromycin B, to generate stably transfected polyclonal cell pools. […] Final assay conditions were determined for the selected pools. […]
60 μL of cells (40,000/well) were added to a sterile 384-well plate. […] The reaction was stopped by addition of 20 μL of NaOH (1 M final conc.) and the absorbance of pNP was measured at 405 nm.

Assay [2] relates to TNFα release from LPS-stimulated THP-1 cells (iRhom2/ADAM17-dependent). Kind of assay: Primary screen (Example 1a): LPS-stimulated TNFα release from THP-1 cells, HTRF. The format is cell-based. As to conditions: Homo sapiens, LPS 100 ng/mL, 3 h, normalized against 50 μM Batimastat, read-out: Primary Screen XC50 TNFα. The procedure:
as §1
THP-1 cells were plated in 384 or 1,536 wells and transferred on the ultra-high throughput screening (uHTS) platform Mark III, and TNFα shedding was initiated by LPS stimulation of THP-1 cells. The extent of released TNFα was detected with the corresponding HTRF antibodies labeled with europium cryptate (donor) and d2 (acceptor). […]
7.5 nL compound and controls in DMSO [10 μM in assay; 0.25% DMSO in 3 μL Assay] were dissolved in 2 μL cell suspension [2.4E6/mL; 4800 cells/well; culture w/o PenStrep], pre-incubated at 37° C., 5% CO2, for 15 min with 1 μL LPS [100 ng/mL in 3 μL assay]. […] After an incubation at room temperature for 2 h or longer, the HTRF readout was performed. […]
(In TR-FRET formats the signal depends on donor and acceptor labels being close together.)

Take `CCC(=O)NCCc1c(/C=C2/C(=O)NC(=O)N(c3ccc(C)cc3C)C2=O)[nH]c2ccccc12` [Compound 1]: the IC50 in assay [1] was greater than 128 µM; in assay [2], less than 0.802 µM.

For `CCOC(=O)c1ccc(Nc2nc3nonc3n3nnnc23)cc1` [Compound 2], the IC50 in assay [1] was greater than 128 µM; in assay [2], less than 0.802 µM.
